Test results published in paper PMC4076210, “Discovery of Novel AKT Inhibitors with Enhanced Anti-Tumor Effects in Combination with the MEK Inhibitor” (PLoS ONE, 2014).
Where two headings read alike, the source gives them in different places.

Columns and labels:
Assay in all cases: Kinase panel
Type in all cases: biochemical
cKit(D816H)(h) = target: T1, cKit(D816H)(h) (Homo sapiens, UniProt P10721, D816H)
T1 construct: purchased Millipore KinaseProfiler

CaMKIIβ(h) = target: T2, CaMKIIβ(h) (Homo sapiens, UniProt Q13554)
T2 construct: purchased Millipore KinaseProfiler

JAK2(h) = target: T3, JAK2(h) (Homo sapiens, UniProt O60674)
T3 construct: purchased Millipore KinaseProfiler
T3 sequence (O60674 whole entry): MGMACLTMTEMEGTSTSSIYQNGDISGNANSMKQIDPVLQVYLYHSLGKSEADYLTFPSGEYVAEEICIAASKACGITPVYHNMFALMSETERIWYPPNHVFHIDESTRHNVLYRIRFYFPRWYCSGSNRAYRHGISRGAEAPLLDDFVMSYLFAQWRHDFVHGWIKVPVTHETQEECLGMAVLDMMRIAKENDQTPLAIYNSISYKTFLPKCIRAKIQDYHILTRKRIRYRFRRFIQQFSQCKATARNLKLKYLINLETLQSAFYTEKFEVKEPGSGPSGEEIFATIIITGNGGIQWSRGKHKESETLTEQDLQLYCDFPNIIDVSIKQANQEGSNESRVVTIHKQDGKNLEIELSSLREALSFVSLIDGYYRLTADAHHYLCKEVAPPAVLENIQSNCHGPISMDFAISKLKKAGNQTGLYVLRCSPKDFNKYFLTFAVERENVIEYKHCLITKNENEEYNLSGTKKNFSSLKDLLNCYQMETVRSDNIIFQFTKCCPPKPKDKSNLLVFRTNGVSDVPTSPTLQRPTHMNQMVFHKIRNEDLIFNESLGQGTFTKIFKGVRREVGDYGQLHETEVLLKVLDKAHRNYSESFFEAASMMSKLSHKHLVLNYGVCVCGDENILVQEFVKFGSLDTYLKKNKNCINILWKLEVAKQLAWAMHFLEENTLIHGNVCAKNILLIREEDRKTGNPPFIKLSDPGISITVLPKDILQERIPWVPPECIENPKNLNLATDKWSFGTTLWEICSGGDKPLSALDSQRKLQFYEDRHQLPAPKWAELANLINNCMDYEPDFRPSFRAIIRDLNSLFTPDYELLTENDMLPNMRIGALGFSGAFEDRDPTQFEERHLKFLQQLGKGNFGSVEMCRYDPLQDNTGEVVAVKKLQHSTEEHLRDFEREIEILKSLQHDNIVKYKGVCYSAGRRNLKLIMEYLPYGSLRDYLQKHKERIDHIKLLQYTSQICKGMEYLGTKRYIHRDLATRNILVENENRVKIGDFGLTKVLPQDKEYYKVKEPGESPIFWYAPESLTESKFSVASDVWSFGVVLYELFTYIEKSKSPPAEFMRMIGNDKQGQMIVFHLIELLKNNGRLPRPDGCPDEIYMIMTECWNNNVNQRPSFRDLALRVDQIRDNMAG

NEK7(h) = target: T4, NEK7(h) (Homo sapiens, UniProt Q8TDX7)
T4 construct: purchased Millipore KinaseProfiler
T4 sequence (Q8TDX7 whole entry): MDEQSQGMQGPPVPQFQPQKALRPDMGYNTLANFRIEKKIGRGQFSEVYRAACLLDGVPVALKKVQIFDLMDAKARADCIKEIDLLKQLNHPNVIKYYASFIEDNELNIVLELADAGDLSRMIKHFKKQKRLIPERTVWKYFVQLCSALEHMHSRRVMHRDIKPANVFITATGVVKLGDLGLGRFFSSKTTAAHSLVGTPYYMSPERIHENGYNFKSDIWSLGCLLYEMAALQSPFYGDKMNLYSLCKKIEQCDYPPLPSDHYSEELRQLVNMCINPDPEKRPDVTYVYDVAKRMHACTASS

MAPK1(h) = target: T5, MAPK1(h) (Homo sapiens, UniProt P27361)
T5 construct: purchased Millipore KinaseProfiler

SAPK3(h) = target: T6, SAPK3(h) (Homo sapiens, UniProt P53778)
T6 construct: purchased Millipore KinaseProfiler
T6 sequence (P53778 1-367): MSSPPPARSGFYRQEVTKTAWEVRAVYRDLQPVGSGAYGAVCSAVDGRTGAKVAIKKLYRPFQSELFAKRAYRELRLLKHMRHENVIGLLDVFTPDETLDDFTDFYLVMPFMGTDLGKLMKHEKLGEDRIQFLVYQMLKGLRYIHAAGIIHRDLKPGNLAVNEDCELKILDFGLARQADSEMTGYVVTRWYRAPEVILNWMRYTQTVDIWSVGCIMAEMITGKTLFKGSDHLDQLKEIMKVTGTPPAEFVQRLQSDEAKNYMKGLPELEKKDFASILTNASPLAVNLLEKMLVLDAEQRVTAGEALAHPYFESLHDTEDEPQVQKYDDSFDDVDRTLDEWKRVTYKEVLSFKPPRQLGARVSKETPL

NEK2(h) = target: T7, NEK2(h) (Homo sapiens, UniProt P51955)
T7 construct: purchased Millipore KinaseProfiler
T7 sequence (P51955 1-445): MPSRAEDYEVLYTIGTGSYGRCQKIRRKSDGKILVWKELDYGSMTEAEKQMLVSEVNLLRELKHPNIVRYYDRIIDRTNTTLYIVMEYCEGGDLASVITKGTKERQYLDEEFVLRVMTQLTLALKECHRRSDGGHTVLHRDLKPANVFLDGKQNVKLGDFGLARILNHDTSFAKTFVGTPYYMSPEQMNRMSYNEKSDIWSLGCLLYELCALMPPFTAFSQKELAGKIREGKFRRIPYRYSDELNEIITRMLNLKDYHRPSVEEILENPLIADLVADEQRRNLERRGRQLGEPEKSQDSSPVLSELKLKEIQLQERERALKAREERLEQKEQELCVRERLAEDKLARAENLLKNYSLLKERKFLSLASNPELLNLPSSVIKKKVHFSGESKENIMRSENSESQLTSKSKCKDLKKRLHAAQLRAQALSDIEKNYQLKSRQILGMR

Fes(h) = target: T8, Fes(h) (Homo sapiens, UniProt P07332)
T8 construct: purchased Millipore KinaseProfiler
T8 sequence (P07332 whole entry): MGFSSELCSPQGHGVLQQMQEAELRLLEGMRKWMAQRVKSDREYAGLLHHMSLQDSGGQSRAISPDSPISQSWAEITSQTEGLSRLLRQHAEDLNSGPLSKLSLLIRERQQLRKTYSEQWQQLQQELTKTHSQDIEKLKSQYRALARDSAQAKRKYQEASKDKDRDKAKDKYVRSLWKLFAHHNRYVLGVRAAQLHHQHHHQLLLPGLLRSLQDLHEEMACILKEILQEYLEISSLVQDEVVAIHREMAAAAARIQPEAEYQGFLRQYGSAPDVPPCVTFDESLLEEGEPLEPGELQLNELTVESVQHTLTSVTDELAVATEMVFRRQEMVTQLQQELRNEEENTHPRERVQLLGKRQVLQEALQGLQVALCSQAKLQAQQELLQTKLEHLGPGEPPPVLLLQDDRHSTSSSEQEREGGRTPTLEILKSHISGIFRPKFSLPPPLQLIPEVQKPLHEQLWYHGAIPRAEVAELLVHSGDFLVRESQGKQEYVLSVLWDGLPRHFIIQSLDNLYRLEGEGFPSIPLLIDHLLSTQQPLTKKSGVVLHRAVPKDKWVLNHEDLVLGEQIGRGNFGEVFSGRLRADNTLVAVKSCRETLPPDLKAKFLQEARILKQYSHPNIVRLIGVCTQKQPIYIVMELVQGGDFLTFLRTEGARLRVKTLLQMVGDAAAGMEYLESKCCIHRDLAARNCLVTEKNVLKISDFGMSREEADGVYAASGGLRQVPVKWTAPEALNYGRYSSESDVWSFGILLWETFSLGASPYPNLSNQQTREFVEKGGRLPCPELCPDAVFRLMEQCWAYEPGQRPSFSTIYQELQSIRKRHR

IRAK1(h) = target: T9, IRAK1(h) (Homo sapiens, UniProt P51617)
T9 construct: purchased Millipore KinaseProfiler

BTK(h) = target: T10, BTK(h) (Homo sapiens, UniProt Q06187)
T10 construct: purchased Millipore KinaseProfiler
T10 sequence (Q06187 whole entry): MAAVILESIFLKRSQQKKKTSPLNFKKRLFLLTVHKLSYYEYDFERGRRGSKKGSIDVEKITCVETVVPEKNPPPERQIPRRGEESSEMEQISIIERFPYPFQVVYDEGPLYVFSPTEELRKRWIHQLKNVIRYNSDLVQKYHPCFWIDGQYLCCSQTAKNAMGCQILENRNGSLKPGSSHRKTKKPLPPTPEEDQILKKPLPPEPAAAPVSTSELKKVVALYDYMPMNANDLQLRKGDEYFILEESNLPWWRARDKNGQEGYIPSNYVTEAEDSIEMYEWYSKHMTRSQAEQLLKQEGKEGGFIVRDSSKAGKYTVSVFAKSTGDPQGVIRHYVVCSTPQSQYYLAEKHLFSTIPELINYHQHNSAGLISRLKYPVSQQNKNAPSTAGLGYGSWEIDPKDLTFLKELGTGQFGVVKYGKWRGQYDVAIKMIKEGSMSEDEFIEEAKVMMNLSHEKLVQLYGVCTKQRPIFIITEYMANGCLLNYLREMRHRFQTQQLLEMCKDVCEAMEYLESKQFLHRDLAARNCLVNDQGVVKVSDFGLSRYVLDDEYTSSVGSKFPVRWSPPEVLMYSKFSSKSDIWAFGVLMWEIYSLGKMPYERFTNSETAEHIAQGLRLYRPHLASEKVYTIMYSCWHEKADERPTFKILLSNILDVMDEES

PKG1α(h) = target: T11, PKG1α(h) (Homo sapiens, UniProt Q13976)
T11 construct: purchased Millipore KinaseProfiler
T11 sequence (Q13976 1-671): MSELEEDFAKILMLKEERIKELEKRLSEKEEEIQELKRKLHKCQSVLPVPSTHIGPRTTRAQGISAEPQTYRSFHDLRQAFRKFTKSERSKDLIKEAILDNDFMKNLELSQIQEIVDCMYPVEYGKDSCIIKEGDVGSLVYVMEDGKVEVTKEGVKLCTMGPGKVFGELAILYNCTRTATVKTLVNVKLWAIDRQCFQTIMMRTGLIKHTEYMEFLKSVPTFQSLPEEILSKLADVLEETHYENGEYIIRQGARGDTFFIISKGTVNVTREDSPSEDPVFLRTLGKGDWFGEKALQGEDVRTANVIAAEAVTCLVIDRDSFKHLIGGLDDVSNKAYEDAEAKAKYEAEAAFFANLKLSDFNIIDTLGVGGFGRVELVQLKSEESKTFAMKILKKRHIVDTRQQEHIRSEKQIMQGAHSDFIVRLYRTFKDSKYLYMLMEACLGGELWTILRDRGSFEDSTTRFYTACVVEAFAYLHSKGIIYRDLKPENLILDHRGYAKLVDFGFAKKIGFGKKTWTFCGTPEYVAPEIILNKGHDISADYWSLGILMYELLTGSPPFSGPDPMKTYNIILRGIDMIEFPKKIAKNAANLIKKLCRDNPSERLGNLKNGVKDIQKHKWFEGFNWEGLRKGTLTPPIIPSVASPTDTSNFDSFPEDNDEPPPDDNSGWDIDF

EphA2(h) = target: T12, EphA2(h) (Homo sapiens, UniProt P29317)
T12 construct: purchased Millipore KinaseProfiler
T12 sequence (P29317 24-976): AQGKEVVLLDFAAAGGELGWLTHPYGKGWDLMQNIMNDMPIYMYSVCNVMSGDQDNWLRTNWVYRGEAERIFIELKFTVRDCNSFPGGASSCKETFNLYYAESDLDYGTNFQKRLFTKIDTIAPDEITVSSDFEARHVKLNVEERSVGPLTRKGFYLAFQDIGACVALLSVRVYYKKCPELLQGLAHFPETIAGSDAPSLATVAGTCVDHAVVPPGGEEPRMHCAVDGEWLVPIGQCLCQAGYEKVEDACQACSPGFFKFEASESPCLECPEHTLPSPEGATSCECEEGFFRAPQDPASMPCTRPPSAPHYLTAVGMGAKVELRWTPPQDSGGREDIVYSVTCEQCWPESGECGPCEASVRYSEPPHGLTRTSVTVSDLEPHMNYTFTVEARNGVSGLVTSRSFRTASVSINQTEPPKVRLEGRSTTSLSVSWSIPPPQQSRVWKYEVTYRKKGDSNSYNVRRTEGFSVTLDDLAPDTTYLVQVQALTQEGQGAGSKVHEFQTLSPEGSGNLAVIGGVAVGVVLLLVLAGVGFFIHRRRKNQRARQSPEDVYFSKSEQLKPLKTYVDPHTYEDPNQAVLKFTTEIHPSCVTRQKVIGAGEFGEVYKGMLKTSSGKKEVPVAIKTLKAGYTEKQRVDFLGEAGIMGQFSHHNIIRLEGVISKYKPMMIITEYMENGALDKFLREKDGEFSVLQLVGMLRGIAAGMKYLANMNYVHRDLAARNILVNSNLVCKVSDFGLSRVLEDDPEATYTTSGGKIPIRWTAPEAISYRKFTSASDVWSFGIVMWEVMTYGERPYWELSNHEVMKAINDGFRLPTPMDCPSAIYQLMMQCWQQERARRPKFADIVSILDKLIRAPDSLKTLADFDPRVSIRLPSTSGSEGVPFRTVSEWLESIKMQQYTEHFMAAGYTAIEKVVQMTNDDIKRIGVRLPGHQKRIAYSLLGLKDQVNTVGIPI

T1 sequence (P10721 26-976 D816H): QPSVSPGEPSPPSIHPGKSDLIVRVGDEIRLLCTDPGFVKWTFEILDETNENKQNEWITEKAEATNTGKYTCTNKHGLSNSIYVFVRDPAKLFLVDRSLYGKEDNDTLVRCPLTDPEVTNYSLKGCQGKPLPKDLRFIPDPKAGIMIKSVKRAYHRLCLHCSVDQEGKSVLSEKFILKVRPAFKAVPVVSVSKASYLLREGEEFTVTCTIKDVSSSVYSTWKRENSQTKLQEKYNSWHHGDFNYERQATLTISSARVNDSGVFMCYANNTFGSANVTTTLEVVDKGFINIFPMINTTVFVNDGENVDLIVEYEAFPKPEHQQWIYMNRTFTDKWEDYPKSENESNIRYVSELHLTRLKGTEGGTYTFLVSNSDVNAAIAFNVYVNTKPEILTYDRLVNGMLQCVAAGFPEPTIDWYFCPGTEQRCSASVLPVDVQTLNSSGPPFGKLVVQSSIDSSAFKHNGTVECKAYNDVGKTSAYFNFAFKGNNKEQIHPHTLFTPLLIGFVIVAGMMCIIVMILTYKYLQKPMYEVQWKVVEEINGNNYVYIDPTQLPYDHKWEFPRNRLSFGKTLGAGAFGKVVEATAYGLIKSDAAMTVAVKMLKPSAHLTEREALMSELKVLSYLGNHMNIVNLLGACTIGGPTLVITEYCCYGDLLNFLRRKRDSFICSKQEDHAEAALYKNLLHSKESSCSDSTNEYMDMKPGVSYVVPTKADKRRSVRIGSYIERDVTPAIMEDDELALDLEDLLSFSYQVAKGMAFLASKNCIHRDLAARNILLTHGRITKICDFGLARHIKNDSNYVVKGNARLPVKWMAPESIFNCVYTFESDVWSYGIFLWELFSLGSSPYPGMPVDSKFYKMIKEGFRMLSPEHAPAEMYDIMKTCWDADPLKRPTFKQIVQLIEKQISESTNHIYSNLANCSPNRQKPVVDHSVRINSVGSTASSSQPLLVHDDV

For `Cn1ncc(Cl)c1-c1cc(C(=O)N[C@H](CN)Cc2cccc(F)c2)sc1Cl` [GSK2110183], the inhibition at 0.5 µM (cKit(D816H)(h)) was -6%, the inhibition at 10 µM (cKit(D816H)(h)) was -3% and the inhibition at 0.5 µM (CaMKIIβ(h)) was 5%. It also gave an inhibition at 10 µM (CaMKIIβ(h)) of 61%, an inhibition at 0.5 µM (JAK2(h)) of -31% and an inhibition at 10 µM (JAK2(h)) of -55%. For the same molecule, the inhibition at 0.5 µM (NEK7(h)) was -8%, the inhibition at 10 µM (NEK7(h)) was -12% and the inhibition at 0.5 µM (MAPK1(h)) was -26%. For the same molecule, the inhibition at 10 µM (MAPK1(h)) was 10%, the inhibition at 0.5 µM (SAPK3(h)) was -6% and the inhibition at 10 µM (SAPK3(h)) was 20%. It also gave an inhibition at 0.5 µM (NEK2(h)) of -10%, an inhibition at 10 µM (NEK2(h)) of -8% and an inhibition at 0.5 µM (Fes(h)) of 9%. For the same molecule, the inhibition at 10 µM (Fes(h)) was 48%, the inhibition at 0.5 µM (IRAK1(h)) was -5% and the inhibition at 10 µM (IRAK1(h)) was 3%. The inhibition at 0.5 µM (BTK(h)) was 2%, the inhibition at 10 µM (BTK(h)) was 4% and the inhibition at 0.5 µM (PKG1α(h)) was 99%. The inhibition at 10 µM (PKG1α(h)) was 99%, the inhibition at 0.5 µM (EphA2(h)) was -17% and the inhibition at 10 µM (EphA2(h)) was -4%.
Work on `Cn1ncc(Cl)c1-c1cc(C(=O)N[C@H](CN)Cc2ccc(F)c(F)c2)oc1Cl` [GSK2141795] yielded an inhibition at 0.5 µM (cKit(D816H)(h); 0.5 µM, read-out: % Inhibition) of -15%, an inhibition at 10 µM (cKit(D816H)(h); 10 µM, read-out: % Inhibition) of 43% and an inhibition at 0.5 µM (CaMKIIβ(h); 0.5 µM, read-out: % Inhibition) of 15%. It also gave an inhibition at 10 µM (CaMKIIβ(h); 10 µM, read-out: % Inhibition) of 75%, an inhibition at 0.5 µM (JAK2(h); 0.5 µM, read-out: % Inhibition) of -13% and an inhibition at 10 µM (JAK2(h); 10 µM, read-out: % Inhibition) of -27%. The inhibition at 0.5 µM (NEK7(h); 0.5 µM, read-out: % Inhibition) was -9%, the inhibition at 10 µM (NEK7(h); 10 µM, read-out: % Inhibition) was -32% and the inhibition at 0.5 µM (MAPK1(h); 0.5 µM, read-out: % Inhibition) was 4%. For the same molecule, the inhibition at 10 µM (MAPK1(h); 10 µM, read-out: % Inhibition) was 58%, the inhibition at 0.5 µM (SAPK3(h); 0.5 µM, read-out: % Inhibition) was -14% and the inhibition at 10 µM (SAPK3(h); 10 µM, read-out: % Inhibition) was 14%. It also gave an inhibition at 0.5 µM (NEK2(h); 0.5 µM, read-out: % Inhibition) of -4%, an inhibition at 10 µM (NEK2(h); 10 µM, read-out: % Inhibition) of 2% and an inhibition at 0.5 µM (Fes(h); 0.5 µM, read-out: % Inhibition) of 0%. The inhibition at 10 µM (Fes(h); 10 µM, read-out: % Inhibition) was 80%, the inhibition at 0.5 µM (IRAK1(h); 0.5 µM, read-out: % Inhibition) was -19% and the inhibition at 10 µM (IRAK1(h); 10 µM, read-out: % Inhibition) was -4%. It also gave an inhibition at 0.5 µM (BTK(h); 0.5 µM, read-out: % Inhibition) of 7%, an inhibition at 10 µM (BTK(h); 10 µM, read-out: % Inhibition) of 6% and an inhibition at 0.5 µM (PKG1α(h); 0.5 µM, read-out: % Inhibition) of 100%. It also gave an inhibition at 10 µM (PKG1α(h); 10 µM, read-out: % Inhibition) of 99%, an inhibition at 0.5 µM (EphA2(h); 0.5 µM, read-out: % Inhibition) of 25% and an inhibition at 10 µM (EphA2(h); 10 µM, read-out: % Inhibition) of 39%.
